According to PMC9114170, “Investigation of the Role of Hydrophobic Amino Acids on the Structure-Activity Relationship in the Antimicrobial Venom Peptide Ponericin L1” (The Journal of membrane biology, 2021):
Ends that are not written are not given here.

Assays:
[1] = system: E. coli D31 inner membrane; experiment: E. coli inner membrane permeabilization (ONPG / β-galactosidase); format: cell-based, Escherichia coli; details: E. coli D31, ONPG hydrolysis, absorbance 420 nm, up to 90 minutes; average of three replicates
Description: A single colony of E.coli D31 was inoculated into LB broth and placed in a shaking incubator and set to 225 rpm at 37 C for ~ 18 hours. A 1:250 dilution was made using the overnight culture into fresh LB broth. To induce the expression the expression of β-galactosidase, a final concentration of 100mM of IPTG was introduced. This dilution plus the IPTG was placed back into the shaking incubator for about 2 hours until an OD600 of 0.2-0.4 was achieved.
A 96 well plate was prepared with the following solutions in order: 10 μL of each peptide variant 2-fold serially diluted down the plate with the exception of the final row (used as a negative control 10 μL of 0.01% acetic acid), 56 μL Z-buffer (60mM Na2HPO4, 40mM NaH2PO4, 10mM KCl, 1mM MgSO4, 50mM β-mercaptoethanol pH 7), 19 μL of the E. coli culture, and 15 μL of 4 mg/ml ONPG that was prepared in Z-buffer added immediately before the assay began. Absorbance measurements wer taken at 420 nm every 5 minutes for a total run time of 90 minutes. […]
(§1) As the mechanism of action of the L1 venom peptide is likely a membrane disruptive mechanism, the effect of the hydrophobic substitutions on membrane permeabilization was investigated using E.coli and ovine red blood cells (RBCs). […] Similarly, the permeabilization of the E. coli inner membrane was assessed using a cytoplasmic enzyme, β-galactosidase, and a chromogenic substrate, ONPG. […]

[2] = system: E. coli D31 outer membrane; experiment: E. coli outer membrane permeabilization (nitrocefin / β-lactamase); format: cell-based, Escherichia coli; details: E. coli D31, nitrocefin hydrolysis, absorbance 486 nm, up to 90 minutes; peptide serially diluted from 15 μM; average of three replicates
Description: A single colony of E.coli D31 was taken from an LB agar plate and inoculated into fresh LB broth with 100 μg/mL ampicillin (LB-Amp), then place in a shaking incubator at 37 C (225 rpm) for ~ 18 hours. After the incubation period 100 μL was taken from the culture and diluted with 25 mL of fresh LB-Amp. The dilution was further incubated in the same conditions until an OD600 of 0.2 to 0.4 was obtained. Once the specified OD600 was reached the culture was then centrifuged at 2500 rpm for 15 minutes in a tabletop clinical centrifuge. The supernatant was discarded and then an equal amount of PBS (100 mM NaH2PO4, 200 mM NaCl, pH7) was used to resuspend the pellet.
Experimental samples were prepared in a 96-well plate in the order as follows: 10 μL of the six peptide variants that were serially diluted starting a concentration of 15 μM with the exception of the last row (used as a negative control 10 μL of 0.01% acetic acid). 80 μL of the resuspended bacteria culture, and 10 μL of 50 μg/mL nitrocefin in PBS. The absorbance was recorded at 486 nm in 5-minute intervals for a total run time of 90 minutes immediately following the addition of nitrocefin. The antimicrobial agent polymyxin B was used as a positive control. The values presented are the average of three replicates.
as §1, with “(RBCs). The permeabilization of the E. coli outer membrane was assayed using an enzyme-substrate pair in which the enzyme (β-lactamase) is located in the periplasmic space while the substrate (the chromogenic nitrocefin) is added to the exterior of cells.” for “(RBCs).”

[3] = Acrylamide quenching of Trp fluorescence in absence and presence of lipid vesicles; format: physicochemical; details: 2 μM peptide in PBS pH 7.0, λex 295 nm, λem 340, average of three replicates ± SD; for Acrylamide quenching Ksv, PCPG: 3:1 DOPC:DOPG vesicles; for Acrylamide quenching Ksv, PCPG / Acrylamide quenching Ksv, PEPG / Acrylamide quenching Ksv, PC / Acrylamide quenching Ksv, PC/Chol: 250 μM lipid; for Acrylamide quenching Ksv, PEPG: 3:1 POPE:DOPG vesicles; for Acrylamide quenching Ksv, PC: DOPC vesicles; for Acrylamide quenching Ksv, PC/Chol: DOPC:Cholesterol vesicles; for Acrylamide quenching Ksv, PBS: no lipid vesicles
Description: To form small unilamellar vesicles (SUVs) sonication or ethanol dilution methods were implemented ([Caputo & London, 2019]). In all cases, lipid vesicle preparation was the same. Depending on the lipid composition, appropriate volumes of lipids in chloroform were mixed in a glass tube and then allowed to dry under N2 gas for 15 minutes. The lipid films were then placed in a vacuum desiccator and allowed to dry further under a vacuum for 1 hour. For vesicles formed through ethanol dilution methods, 10 μL of pure ethanol was added to the film, and then vortex until the dissipation of the film. While continuing to vortex, the appropriate amount of PBS was added. For vesicles formed using the method of sonication, PBS was added directly to the tube while being vortexed to create multilamellar vesicles (MLVs). The MLV suspension was covered with parafilm and then placed in a high-powered bath sonicator (Avanti Lipids) and subjected to sonication for 20 minutes to create SUVs.
Acrylamide quenching was monitored by titration of samples with 10 μL aliquots of 4M acrylamide titrated into peptide samples prepared as described above. These samples contained either or [0.25] mM total lipid. After each addition of acrylamide, Trp fluorescence intensity was measured using λex = 295 nm and λem = 340. Corrections to the emission intensity were made for background subtraction, dilutions, and inner filter effects in the excitation path as described previously. The same method to calculate Ksv was used as above.
In order to gain more insight into the bilayer interactions, fluorescence quenching approaches were utilized. The peptides were exposed to the aqueous quencher acrylamide in solution or when bound to vesicles. […] Thus, peptide Trp exposure to the aqueous milieu can be gauged by the extent of quenching by acrylamide. Stern-Volmer quenching plots were created to analyze the data and Ksv (slopes of a linear fit to the data) are shown in Figure 4 and Table 2. […] In the case of L1L and L1I, there was a significant reduction in quenching between the solution (free) state of the peptide and when bound to anionic vesicles, but a much smaller reduction if any when interacting with zwitterionic vesicles. This is consistent with a more deeply buried Trp in anionic bilayers.

| Sequence | Inner membrane permeabilization [1] | Outer membrane permeabilization [2] | Acrylamide quenching Ksv, PCPG [3] [M⁻¹] | Acrylamide quenching Ksv, PEPG [3] [M⁻¹] | Acrylamide quenching Ksv, PC [3] [M⁻¹] | Acrylamide quenching Ksv, PC/Chol [3] [M⁻¹] | Acrylamide quenching Ksv, PBS [3] [M⁻¹] |
| --- | --- | --- | --- | --- | --- | --- | --- |
| FFKEFWTKMKGAGKAFFGKFKGFF [L1F] | exhibited any inner membrane permeabilizing activity | increased permeability of the outer membrane | 2.06 ± 0.97 | 1.80 ± 0.77 | 1.57 ± 3.49 | 1.63 ± 0.20 | 4.18 ± 4.79 |
| LLKELWTKMKGAGKALLGKLKGLL [L1L] | exhibited any inner membrane permeabilizing activity | increased permeability of the outer membrane | 3.51 ± 0.17 | 2.22 ± 4.04 | 4.08 ± 2.10 | 8.92 ± 0.94 | 4.26 ± 0.97 |
